This note sets out measurements from patent US20220160703A1, “TUMOR-SELECTIVE COMBINATION THERAPY” (The Board of Regents of The University of Texas System, priority 2019, published 2022).

The test system of data set [1] is NQO1 positive human lung carcinoma lines A549. Briefly: Cell survival of A549 cells (SRB). The format is cell-based. Particulars: β-lap 0-6 μM 3 hr, survival 4 days later. On the procedure:
(FIG. 18A) B16 NQO1 #1 cells were subcutaneously transplanted into C57BL/6 WT and Rag1KO mice (n=5/group), respectively. Tumor bearing mice were treated with β-lap (0.3 mg, i.t.) every other day for four times. (FIG. 18B) Changes of the immune cells in the tumor microenvironment 7 days after β-lap treatment. C57BL/6 mice (n=4/group) were transplanted with MC38 cells and intratumorally treated with 0.3 mg of β-lap for two times. 7 days after the last treatment, tumor tissue was removed and digested, and immune cells were analyzed with flow cytometer (unpaired student t-test was used to analyze the significance of changes, *P<0.05, **P<0.01). (FIG. 18C) C57BL/6 mice were transplanted with MC38 cells and treated with β-lap (0.3 mg, i.t.) every other day for four times. For T cell depletion, 200 μg of anti-CD4 or anti-CD8 antibodies were injected four times at three days interval during the treatment. […] Data are shown as mean±SEM.
Sulforhodamine B (SRB) Cytotoxicity Assay. 4,000 cells were planted in 96 or 48 well plate with triplicates. After overnight growth, cells were exposed to β-lapachone with or without NQO1 inhibitor dicoumarol (50 μM) for a 3-hour pulse.

For the next data set, the system named is CD8 T cells. As to the kind of experiment: Direct effect on CD8 T cells (apoptosis, proliferation, IFNγ). The format is cell-based, mice. Conditions: tumor lethal dose of β-lap. As to the method: FIGS. 23A-D. IB-DNQ-mediated antitumor effect influences tumor microenvironment. 6×10^5 MC38 cells were subcutaneously transplanted into C57BL/6 mice (n=3/group). Tumor-bearing mice were treated with IB-DNQ (12 mg/kg, i.t.) or vehicle every other day for four times after tumor volumes reached to 50 mm^3. Tumors were collected 24 h later after the last IB-DNQ injection. (FIG. 23A) Flow cytometry analysis of tumor-infiltrating immune cells from vehicle and IB-DNQ treated tumors. (FIG. 23B) Quantification of immune populations from vehicle and IB-DNQ treated tumors. (FIG. 23C) T cell proliferation in the presence/absence of IB-DNQ. CFSE labeled splenocytes were treated with lethal dose IB-DNQ for 4 h followed by washing and stimulation with anti-CD3 (1 μg/ml) and anti-CD28 (2 μg/ml) for 48 h, proliferative CD8 T cells were then analyzed by flow cytometry assay. (FIG. 23D) Effect of IB-DNQ on T cells. […] 24 h later, cell death was analyzed by flow cytometry. […]
I3-Lap-induced-antitumor effect depends on dendritic cell-mediated T cell cross-priming. […] To rule out of direct effect of β-lap on CD8 T cells, the inventors evaluated the expression of NQO1 on CD8 T cells and the effect of β-lap on CD8 T cell survival, proliferation and function. […] IFNγ secretion was measured to evaluate the capability of DCs to prime the antigen specific T cells.

The subject of the next data set is MC38-OVA cells. Briefly: Prophylactic tumor vaccination with β-lap-induced dying MC38-OVA cells. The format is in vivo, mice. Particulars: β-lap-induced dying MC38-OVA cells s.c., rechallenge after 7 days.
Data set [2] in a line: Methemoglobinemia and weight loss. In kind it is in vivo. Conditions: MC38 tumor bearing mice, 10 Gy + β-lap.

Text for MC38-OVA cells: (FIG. 5B) The research schema for in vivo cross-presentation of tumor specific antigen from β-lap-induced dying tumor cells in FIG. 5C and FIG. 5D. (FIGS. 5C-D) Live or β-lap-induced dying MC38-OVA cells were subcutaneously inoculated into the flank of WT or Tlr4^−/− C57BL/6 (n=3-4/group) mice along with or without anti-HMGB1 antibody. 5 days later, the tumor drain lymph mode cells were collected and re-stimulated with OVA protein, OT-1 peptide or irradiated MC38-OVA cells for 48 hr. IFNγ producing cells were determined by ELISPOTs assay (FIG. 5C), and IFNγ secretion level was quantified by CBA mouse IFNγ assay (FIG. 5D). (FIG. 5E) The research schema for the immunogenic vaccine assay in FIG. 5F. (FIG. 5F) MC38-OVA cells treated with β-lap in vitro were inoculated s.c. along with or without anti-HMGB1 antibody into the flank of C57BL/6 mice (n=5-7/group). […] Data are shown as mean±SEM from at least two to three independent experiments. *P<0.05, **P<0.01, and ***P<0.001 determined by two-way ANOVA (FIG. 5C and FIG. 5D) or log-rank test (FIG. 5F).
The numbers of tumor antigen-specific T cells (FIG. 5C) and IFNγ production (FIG. 5D) in TdLN were determined; (ii) C57BL/6 mice that received vaccination with β-lap-induced dying MC38-OVA cells in the presence of anti-HMGB1Ab were rechallanged with MC38-OVA for evaluation of the antitumor protection (FIGS. 5E-F). […]

Regarding `CC1(C)CCC2=C(O1)c1ccccc1C(=O)C2=O` [β-lap, β-lapachone], in data set [1], the “response to β-lap in vitro” value is on record as “sensitive”. Also, the “CD8 T cell apoptosis, anti-CD3/CD28 stimulated proliferation and IFNγ production” value with CD8 T cells is given as “no effect”. For the same compound, the “growth of re-challenged tumor after immunization” value in the data set on MC38-OVA cells is listed as “prevented the growth of the re-challenged tumor”. Further, the “methemoglobinemia or weight loss” value in data set [2] was “no significant methemoglobinemia or weight loss”.
